What all share (assay type): ADME, organism-based
Common to all, as to settings: in vivo

Data set [1] in a line: Volume of distribution in iv dosed rat.
Data set [2] can be described thus: Oral bioavailability in rat at 2 mg/kg.
The nature of data set [3]: AUC in rat at 2 mg/kg, po.
The subject of another data set is Plasma. Put plainly: Unbound plasma concentration in mouse.

Here are results for one compound from ChEMBL document CHEMBL3616407, “The imidazo[1,2-a]pyridine ring system as a scaffold for potent dual phosphoinositide-3-kinase (PI3K)/mammalian target of rapamycin (mTOR) inhibitors” (Bioorg Med Chem Lett, 2015).

In data set [1], `COc1ncc(Nc2nc3ccc(C(C)(C)O)cn3c2-c2nc(C)nc(N)n2)cc1F` returned a Vd of 4.2 L/kg. In data set [2], this compound yielded a bioavailability of 51%. Besides, the AUC in data set [3] was 640 ng·h/mL. Also, the “Cp(f)” value with Plasma was found to be 84 nM.

As a reminder, the Vd is a proportionality between amount in the body and measured concentration, not a real space. High values mean extensive tissue distribution, low ones confinement near the circulation. As usually defined, the bioavailability is the share of a dose that reaches the circulation, judged against a reference dose that is usually intravenous. What is called AUC is the area under the concentration-time curve, a measure of exposure. The low end stands for low exposure, the high end for high exposure.
